{"source": "patent US20180352816A1", "about": "“COMPOSITION FOR CROP CARE AND PROTECTION” (ALPHA BIOPESTICIDES LIMITED, priority 2015, published 2018)", "key": {"E. amylovora": {"tested_on": "E. amylovora", "test": "Broth microdilution MIC and FIC index (CLSI protocol)", "method": "The antimicrobial activity of the crop defence compositions prepared in above Examples was evaluated through in vitro test of antimicrobial susceptibility with broth microdilution method (CLSI protocol—Clinical and Laboratory Standards Institute).\nThe Minimum Inhibitory Concentrations (MICs) were determined in multiwell plates.\nThe determination of synergy was evaluated by using standard protocol and evaluating in particular the FIC index.\nThe value of FIC index was determined through the following formula:"}, "P. infestans": {"tested_on": "P. infestans", "test": "microbe, parasite or virus in culture", "assay_type": "cell-based"}, "B. cinerea": {"tested_on": "B. cinerea", "test": "Broth microdilution MIC and FIC index (CLSI protocol)", "assay_type": "cell-based"}, "Z. tritici": {"tested_on": "Z. tritici", "test": "Broth microdilution MIC and FIC index (CLSI protocol)", "assay_type": "cell-based"}, "P. syringae": {"tested_on": "P. syringae", "test": "Broth microdilution MIC and FIC index (CLSI protocol)", "assay_type": "cell-based", "conditions": "triplicate", "source_text": "FIC index>1: no synergistic effect."}, "[1]": {"conditions": "E. amylovora, broth microdilution, triplicate"}}, "note": "Read-outs that look alike come from different tables or passages of the source."}
{"compound": "[Cu+2].[OH-].[OH-]", "note": "[Copper hydroxide, copper hydroxide]", "values": [{"measurement": "MIC", "setting": "E. amylovora; [1]", "value": 375, "unit": "µg/mL"}]}
{"compound": "[Cl-].[Cu+2].[Cu+2].[OH-].[OH-].[OH-]", "note": "[Copper oxychloride, copper oxychloride]", "values": [{"measurement": "MIC", "setting": "P. infestans; P. infestans, broth microdilution, triplicate", "value": 3600, "unit": "µg/mL"}]}
{"compound": "CCCCCCCC/C=C\\CCCCCCCC(=O)[O-].[K+]", "note": "[Potassium oleate]", "values": [{"measurement": "MIC", "setting": "B. cinerea; Botrytis cinerea", "value": 3770, "unit": "µg/mL"}, {"measurement": "MIC", "setting": "Z. tritici; Zymoseptoria tritici", "value": 15100, "unit": "µg/mL"}, {"measurement": "MIC", "setting": "P. syringae; Pseudomonas syringae, read-out: MIC", "value": 30, "unit": "µg/mL"}, {"measurement": "MIC", "setting": "P. infestans; Phytophthora infestans", "value": 220, "unit": "µg/mL"}, {"measurement": "MIC", "setting": "E. amylovora; Erwinia amylovora", "value": 7.3, "unit": "µg/mL"}]}
{"compound": "copper anthranilate", "values": [{"measurement": "MIC", "setting": "P. syringae", "value": 590, "unit": "µg/mL"}, {"measurement": "MIC", "setting": "E. amylovora; [1]", "value": 290, "unit": "µg/mL"}]}
{"compound": "copper salicylate", "values": [{"measurement": "MIC", "setting": "B. cinerea; B. cinerea, broth microdilution, triplicate", "value": 60, "unit": "µg/mL"}, {"measurement": "MIC", "setting": "Z. tritici; Z. tritici, broth microdilution, triplicate", "value": 235, "unit": "µg/mL"}]}
